The record followed here is ChEMBL document CHEMBL3259601, “Synthesis of novel 1,2,3-triazole substituted-N-alkyl/aryl nitrone derivatives, their anti-inflammatory and anticancer activity” (Eur J Med Chem, 2014).

For one data set, the system named is COLO 205. In words: Cytotoxicity against human COLO205 cells assessed as growth inhibition after 24 hrs by MTT assay. Conditions: COLO 205, 24 h. Type of data set: functional, cell-based.
The subject of the next data set is MDA-MB-231. The data set can be described thus: Cytotoxicity against human MDA-MB-231 cells assessed as growth inhibition after 24 hrs by MTT assay. Conditions: MDA-MB-231, 24 h. Type of data set: functional, cell-based.
A further data set deals with THP-1. The data set can be described thus: Cytotoxicity against human THP1 cells assessed as effect on cell viability at 20 uM after 48 hrs by trypan blue exclusion assay. Type of data set: cell-based. To be noted: thp-1, 48 h.
Data set [1] in a line: Antiinflammatory activity in human THP1 cells assessed as inhibition of PMA-induced IL-1beta secretion preincubated for 2 hrs followed by PMA challenge measured after 48 hrs by ELISA. To be noted: THP-1. Type of data set: functional, cell-based. For orientation: In an ELISA, binding on a coated surface is turned into a signal by an enzyme label.
In data set [2] the test system is PC-3. In words: Cytotoxicity against human PC3 cells assessed as growth inhibition after 24 hrs by MTT assay. Type of data set: functional, cell-based. To be noted: PC-3, 24 h. In general terms: Tetrazolium assays rely on reduction of a dye to a coloured formazan, in cell work by metabolically active cells.
For another data set, the system named is A549. In words: Cytotoxicity against human A549 cells assessed as growth inhibition after 24 hrs by MTT assay. Type of data set: functional, cell-based. Conditions: A549, 24 h.
In data set [3] the test system is PC-3. In words: Induction of apoptosis in human PC3 cells assessed as activation of caspase-3 using AFC conjugated Ac-DEVD as substrate measured per mg of protein at 10 uM after 36 hrs by fluorescence assay (reference value: 2192.3 +/- 115.9 FU/min). Type of data set: functional.
Data set [4] concerns PC-3. In words: Induction of apoptosis in human PC3 cells assessed as activation of caspase-3 using AFC conjugated Ac-DEVD as substrate measured per mg of protein at 10 uM after 12 hrs by fluorescence assay (reference value: 1055.6 +/- 108.2 FU/min). Type of data set: functional.
Data set [5] concerns PC-3. In words: Induction of apoptosis in human PC3 cells assessed as activation of caspase-3 using AFC conjugated Ac-DEVD as substrate measured per mg of protein at 8 uM after 36 hrs by fluorescence assay (reference value: 2192.3 +/- 115.9 FU/min). Type of data set: functional.
The test system of data set [6] is PC-3. In words: Induction of apoptosis in human PC3 cells assessed as activation of caspase-3 using AFC conjugated Ac-DEVD as substrate measured per mg of protein at 10 uM after 24 hrs by fluorescence assay (reference value: 2115.3 +/- 83.2 FU/min). Type of data set: functional.
The test system of data set [7] is PC-3. The data set can be described thus: Induction of apoptosis in human PC3 cells assessed as activation of caspase-3 using AFC conjugated Ac-DEVD as substrate measured per mg of protein at 8 uM after 48 hrs by fluorescence assay (reference value: 2642.4 +/- 37.5 FU/min). Type of data set: functional.
The subject of data set [8] is PC-3. The data set can be described thus: Induction of apoptosis in human PC3 cells assessed as activation of caspase-3 using AFC conjugated Ac-DEVD as substrate measured per mg of protein at 8 uM after 12 hrs by fluorescence assay (reference value: 1055.6 +/- 108.2 FU/min). Type of data set: functional.
Data set [9] relates to PC-3. The data set can be described thus: Induction of apoptosis in human PC3 cells assessed as activation of caspase-3 using AFC conjugated Ac-DEVD as substrate measured per mg of protein at 8 uM after 24 hrs by fluorescence assay (reference value: 2115.3 +/- 83.2 FU/min). Type of data set: functional.
The subject of data set [10] is PC-3. In words: Induction of apoptosis in human PC3 cells assessed as activation of caspase-3 using AFC conjugated Ac-DEVD as substrate measured per mg of protein at 10 uM after 48 hrs by fluorescence assay (reference value: 2642.4 +/- 37.5 FU/min). Type of data set: functional.

As to `CCCCCCCCCCn1cc(/C=[N+](\[O-])c2ccccc2)nn1`, the IC50 in the data set on COLO 205 was above 100 µM; in the data set with MDA-MB-231, above 100 µM; in [1] it was 9.9 µM; in the data set on PC-3 [2], above 100 µM; with A549, above 100 µM. Moreover, the Activity entry in the data set on THP-1 is reported as “Non-toxic”.
For `[O-]/[N+](=C\c1cn(-c2ccc(C(F)(F)F)cc2)nn1)Cc1ccccc1`, the IC50 was above 100 µM with COLO 205; above 100 µM in the data set with MDA-MB-231; 15.4 µM in [1]; above 100 µM in the data set on PC-3 [2]; above 100 µM in the data set with A549. Besides, in the data set on THP-1, the Activity result is listed as “Non-toxic”.
As to `CC(C)(C)/[N+]([O-])=C/c1cn(-c2ccc(F)cc2)nn1`, the half-maximal inhibitory concentration (IC50) with COLO 205 was 58.9 µM; with MDA-MB-231 it was 66.4 µM; in [1], 14 µM; in the data set on PC-3 [2], 72.1 µM; in the data set with A549, 87 µM. The Activity result in the data set with THP-1 is recorded as “Non-toxic”.
Consider `[O-]/[N+](=C\c1cn(-c2ccc(Cl)cc2)nn1)c1ccccc1`, for which the half-maximal inhibitory concentration (IC50) with COLO 205 is 9.7 µM; in the data set on MDA-MB-231 it was 8.9 µM; in [1] it was above 20 µM; in the data set with PC-3 [2] it was 11.1 µM; with A549, 10.5 µM. Also, the Activity entry in the data set with THP-1 was “Non-toxic”.
For `CCCCCCCCCCn1cc(/C=[N+](\[O-])Cc2ccccc2)nn1`, the concentration for half-maximal inhibition (IC50) is above 100 µM in the data set with COLO 205; above 100 µM in the data set on MDA-MB-231; 15.6 µM in [1]; above 100 µM in the data set on PC-3 [2]; above 100 µM with A549. The Activity entry in the data set with THP-1 is recorded as “Non-toxic”.
Take `CCCCCCCCn1cc(/C=[N+](\[O-])Cc2ccccc2)nn1`: the IC50 in the data set on COLO 205 was above 100 µM; with MDA-MB-231, above 100 µM; in [1], 13.1 µM; in the data set on PC-3 [2] it was above 100 µM; with A549, above 100 µM. Also, the Activity entry in the data set with THP-1 is “Non-toxic”.
With `COc1ccc(-n2cc(/C=[N+](\[O-])Cc3ccccc3)nn2)cc1`, the half-maximal inhibitory concentration (IC50) with COLO 205 is above 100 µM; in the data set on MDA-MB-231 it was above 100 µM; in data set [1] it was 17.3 µM; in the data set with PC-3 [2], above 100 µM; in the data set on A549, above 100 µM. In addition, the Activity result in the data set on THP-1 is recorded as “Non-toxic”.
With `CC(C)(C)/[N+]([O-])=C/c1cn(-c2ccccc2)nn1`, the half-maximal inhibitory concentration (IC50) with COLO 205 was 15.2 µM; with MDA-MB-231, 14.8 µM; in data set [1] it was above 20 µM; with PC-3 [2], 15.4 µM; in the data set on A549, 17.4 µM. Further, in the data set with THP-1, the Activity result is on record as “Non-toxic”.
With `CC(C)(C)/[N+]([O-])=C/c1cn(CCC(F)(F)C(F)(F)C(F)(F)C(F)(F)C(F)(F)C(F)(F)F)nn1`, the half-inhibitory concentration (IC50) in the data set on COLO 205 was 9.5 µM; in the data set on MDA-MB-231 it was 9.8 µM; in data set [1], 8.1 µM; in the data set with PC-3 [2], 11.2 µM; in the data set on A549, 11.5 µM. Also, the Activity entry in the data set on THP-1 was “Non-toxic”.
As for `[O-]/[N+](=C\c1cn(CCC(F)(F)C(F)(F)C(F)(F)C(F)(F)C(F)(F)C(F)(F)C(F)(F)C(F)(F)F)nn1)Cc1ccccc1`, the Activity is given as 4082.5 FU/min in the data set with PC-3 [3]; 2541.4 FU/min with PC-3 [4]; “Non-toxic” with THP-1; 3396.8 FU/min with PC-3 [5]; 3802.2 FU/min with PC-3 [6]; 4280.8 FU/min in the data set with PC-3 [7]. The Activity in the data set with PC-3 [8] amounted to 2473.2 FU/min; in the data set on PC-3 [9], 3148.5 FU/min; with PC-3 [10], 4700.5 FU/min. Further, the IC50 worked out at 9.4 µM in the data set with COLO 205; 8.4 µM in the data set with MDA-MB-231; 17 µM in data set [1]; 8.1 µM in the data set with PC-3 [2]; 8.8 µM in the data set on A549.
For `[O-]/[N+](=C\c1cn(-c2ccc(F)cc2)nn1)c1ccccc1`, the half-maximal inhibitory concentration (IC50) with COLO 205 is 10.2 µM; in the data set on MDA-MB-231, 9.8 µM; in [1], above 20 µM; in the data set with PC-3 [2], 11.4 µM; in the data set with A549, 12.5 µM. Moreover, in the data set with THP-1, the Activity entry is “Non-toxic”.
Turning to `CC(C)(C)/[N+]([O-])=C/c1cn(CCC(F)(F)C(F)(F)C(F)(F)C(F)(F)C(F)(F)C(F)(F)C(F)(F)C(F)(F)F)nn1`, the IC50 in the data set on COLO 205 worked out at 28.8 µM; with MDA-MB-231, 29.7 µM; in data set [1] it was 15 µM; in the data set with PC-3 [2], 25.7 µM; with A549, 30.5 µM. The Activity result with THP-1 was “Non-toxic”.
Regarding `[O-]/[N+](=C\c1cn(CCC(F)(F)C(F)(F)C(F)(F)C(F)(F)C(F)(F)C(F)(F)F)nn1)Cc1ccccc1`, the IC50 in the data set on COLO 205 is above 100 µM; in the data set with MDA-MB-231 it was above 100 µM; in [1], 12.1 µM; in the data set on PC-3 [2], above 100 µM; in the data set with A549 it was above 100 µM. Also, the Activity entry in the data set on THP-1 is reported as “Non-toxic”.
Turning to `CC(C)(C)/[N+]([O-])=C/c1cn(-c2ccc(C(F)(F)F)cc2)nn1`, the IC50 was determined as 44.7 µM in the data set with COLO 205; 48.2 µM with MDA-MB-231; 14.4 µM in data set [1]; 42 µM in the data set with PC-3 [2]; 43.6 µM with A549. Further, in the data set on THP-1, the Activity result is “Non-toxic”.
For `[O-]/[N+](=C\c1cn(-c2ccc(F)cc2)nn1)Cc1ccccc1`, the IC50 was above 100 µM in the data set on COLO 205; above 100 µM in the data set on MDA-MB-231; 9.7 µM in data set [1]; above 100 µM in the data set with PC-3 [2]; above 100 µM in the data set with A549. In addition, the Activity entry in the data set with THP-1 is given as “Non-toxic”.
Take `CCCCCCCCn1cc(/C=[N+](\[O-])C(C)(C)C)nn1`: the IC50 with COLO 205 was 30.8 µM; with MDA-MB-231, 29.7 µM; in [1], 7.9 µM; in the data set with PC-3 [2] it was 24.6 µM; with A549, 31.3 µM. For the same molecule, the Activity result with THP-1 is given as “Non-toxic”.
Regarding `[O-]/[N+](=C\c1cn(CCC(F)(F)C(F)(F)C(F)(F)C(F)(F)C(F)(F)C(F)(F)C(F)(F)C(F)(F)F)nn1)c1ccccc1`, the half-inhibitory concentration (IC50) with COLO 205 is above 100 µM; with MDA-MB-231, above 100 µM; in data set [1] it was 11.7 µM; in the data set on A549, 86.8 µM. The Activity result in the data set on THP-1 is recorded as “Non-toxic”.
As to `CCCCCCCCCCn1cc(/C=[N+](\[O-])C(C)(C)C)nn1`, the half-maximal inhibitory concentration (IC50) in the data set on COLO 205 amounted to 22.1 µM; in the data set on MDA-MB-231, 20.8 µM; in data set [1], 20 µM; in the data set with PC-3 [2] it was 19.8 µM; in the data set on A549, 24.8 µM. Moreover, the Activity result in the data set on THP-1 is “Non-toxic”.
Consider `[O-]/[N+](=C\c1cn(-c2ccccc2)nn1)Cc1ccccc1`, for which the IC50 with COLO 205 was above 100 µM; in the data set with MDA-MB-231 it was above 100 µM; in [1] it was 8 µM; in the data set on A549 it was above 100 µM. Also, in the data set with THP-1, the Activity entry is listed as “Non-toxic”.
Take `CN1C(C(=O)Nc2ccccn2)=C(O)c2ccccc2S1(=O)=O` [PIROXICAM]: in data set [1], the IC50 came out at 18 µM.
For `COc1ccc(-n2cc(/C=[N+](\[O-])C(C)(C)C)nn2)cc1`, the concentration for half-maximal inhibition (IC50) with COLO 205 turned out to be 19.8 µM; in the data set with MDA-MB-231, 23.1 µM; in data set [1], 13.5 µM; in the data set on PC-3 [2], 23.8 µM; with A549, 23.7 µM. Also, the Activity result in the data set on THP-1 was “Non-toxic”.
Turning to `[O-]/[N+](=C\c1cn(-c2ccccc2)nn1)c1ccccc1`, the concentration for half-maximal inhibition (IC50) was above 100 µM in the data set with COLO 205; above 100 µM in the data set on MDA-MB-231; 8.8 µM in data set [1]; above 100 µM with PC-3 [2]; above 100 µM with A549. In addition, in the data set with THP-1, the Activity result is on record as “Non-toxic”.

As a reminder, the IC50 is the concentration needed to halve the response being measured.
